# Read-outs that look alike come from different tables or passages of the source.
# What was measured:
# [1] = system: K562-S human leukemia cell line; assay: Preliminary experiments: concentration of toxicant decreasing cell survival by 50%; assay type: cell-based; conditions: K562 cells
# Method: (§1) In vitro protection assays against either methylmercury chloride (MeHgCl) or tert-butyl hydroperoxide (t-BuOOH) were conducted with the K562-S human leukemia cell line (REF #CRL-3343™) obtained from the American Type Culture Collection (ATCC). Cells were cultured in Gibco RPMI 1640 complete growth medium with L-Glutamine (REF #31800-105), NaHCO3 (2 g/L), 10% FBS (REF #080-750), 2% antibiotic-antimycotic from Gibco (REF #15240-062), pH 7.4, and maintained at 37° C. in a 5% CO2 incubator and protected from light.
# (§2) An uptake induction step, in a saline buffer containing 125 mM of NaCl; 25 mM of HEPES-NaOH (pH 7.4); 5.6 mM of D(+)-glucose; 4.8 mM KCl; 1.2 mM of KH2PO4; 1.2 mM of CaCl2; and 1.2 mM of MgSO4, was performed prior to adding selenoneine or ergothioneine to the cell medium.^[22,23] Cells were resuspended in triplicate and pre-incubated in the saline buffer at a density of 2×10^6 cells/mL for 20 minutes at 37° C. under slight agitation. Cells were then incubated during 4 hours in the same buffer and conditions but supplemented with the protective agent of interest—either ergothioneine or selenoneine—in the presence of 0.15 mM of reduced glutathione (GSH). […] Results are expressed as the mean±standard error of the mean of triplicates. […]
# [2] = S at C-5 (ovothiols) versus S at C-2 (ergothioneine); cited from earlier work
# [3] = system: human erythroid K562 cells; assay type: cell-based; conditions: for Viability of cells exposed to t-BuOOH: 830 μM t-BuOOH 1 h, protective agent 2.5-150 μM, 4 h pre-incubation, FIG. 3
# Method: (§3) Since selenoneine is the analog of the well-known natural antioxidant and cytoprotectant ergothioneine, its capacity as an antioxidant and cytoprotectant was assessed. To that effect, the capacity of selenoneine to protect cells against the cytotoxic effects induced by t-butyl hydroperoxide (t-BuOOH) and methylmercury chloride (MeHgCl) was assessed. Human erythroid K562 cells expressing the ergothioneine transporter (OCTN1) were exposed to the IC50 values of t-BuOOH and MeHgCl respectively, in the presence of increasing concentrations of either selenoneine or ergothioneine. The cell viability was subsequently assessed using the trypan blue viability exclusion test.^[20]
# as §1
# as §2, with “(GSH). Concentrations of protective agents, either ergothioneine or selenoneine, used for these experiments were 2.5, 5, 25, 50, 100, and 150 μM (FIGS. 3 and 4).” for “(GSH).”
# [4] = system: human erythroid K562 cells; assay: Protection against MeHgCl induced cytotoxicity, trypan blue viability exclusion test; assay type: cell-based; conditions: for Viability of cells exposed to MeHgCl: 5 μM MeHgCl overnight (18h), protective agent 2.5-150 μM, 4 h pre-incubation, FIG. 4
# Method: as §3, §1
# An uptake induction step, in a saline buffer containing 125 mM of NaCl; 25 mM of HEPES-NaOH (pH 7.4); 5.6 mM of D(+)-glucose; 4.8 mM KCl; 1.2 mM of KH2PO4; 1.2 mM of CaCl2; and 1.2 mM of MgSO4, was performed prior to adding selenoneine or ergothioneine to the cell medium.^[22,23] Cells were resuspended in triplicate and pre-incubated in the saline buffer at a density of 2×10^6 cells/mL for 20 minutes at 37° C. under slight agitation. Cells were then incubated during 4 hours in the same buffer and conditions but supplemented with the protective agent of interest—either ergothioneine or selenoneine—in the presence of 0.15 mM of reduced glutathione (GSH). Concentrations of protective agents, either ergothioneine or selenoneine, used for these experiments were 2.5, 5, 25, 50, 100, and 150 μM (FIGS. 3 and 4). Cells were then washed twice in cold phosphate-buffered saline (PBS) and resuspended in complete RPMI growth medium and divided into two groups at a density of 1×10^6 cells/mL. One group of cells remained untreated (control group) while the other group was treated with either 830 μM of t-BuOOH, or 5 μM of MeHgCl. These concentrations were determined to decrease cell survival by 50% in preliminary experiments (IC50 values). Cells were then incubated at 37° C. under slight agitation over a period of one (1) hour in the case of t-BuOOH, or overnight (18h) for MeHgCl. The cells were then washed twice in cold PBS before being resuspended in complete RPMI growth medium at a density of 5×10^5 cells/mL. The trypan blue viability exclusion test was then conducted using a Hausser Scientific™ Bright-Line™ Phase Hemacytometer. Viable cells (%)=[total number of viable cells per mL of aliquot/total number of cells per mL of aliquot]×100.^[20] Results are expressed as the mean±standard error of the mean of triplicates. These experiments were repeated twice, and similar results were obtained.
smiles,measurement,setting,value
"[CH3][Hg][Cl] [MeHgCl, methylmercury chloride]",IC50,[1],5 µM
C[N+](C)(C)[C@@H](Cc1c[nH]c(=S)[nH]1)C(=O)[O-] [ergothioneine],pKa value,[2],8.7
same,Viability of cells exposed to t-BuOOH,[3],increased with increasing concentrations
same,Viability of cells exposed to MeHgCl,[4],increased with increasing concentrations
same,Cell viability versus control groups at concentrations of 150 μM or higher,"[4]; 5 μM MeHgCl, K562 cells, protective agent 150 μM or higher",did not result in cell viabilities comparable to those of the control groups
"C[N+](C)(C)[C@@H](Cc1c[nH]c(=[Se])[nH]1)C(=O)[O-] [selenoneine, (S)-3-(2-selenoxo-2,3-dihydro-1H-imidazol-4-yl)-2-(trimethylammonio) propanoate]",Viability of cells exposed to t-BuOOH,[3],increased with increasing concentrations
same,Concentration resulting in cell viabilities comparable to those of the control groups,"[3]; 830 μM t-BuOOH, K562 cells",≥ 100 µM
same,Viability of cells exposed to MeHgCl,[4],increased with increasing concentrations
same,Concentration resulting in cell viabilities comparable to those of the control groups,"[4]; 5 μM MeHgCl, K562 cells",≥ 100 µM
same,"Protective effect against MeHgCl induced cytotoxicity, comparison","[4]; 5 μM MeHgCl, K562 cells",greater protective effect relative to ergothioneine
"CC(C)(C)OO [t-BuOOH, t-butyl hydroperoxide]",IC50,[1]; Homo sapiens,830 µM

# Source: patent US20250115557A1, “TOTAL SYNTHESES OF SELENONEINE, ISO-SELENONEINE, AND ISOMERS” (UNIVERSITÉ LAVAL, priority 2022, published 2025)
